Measurements from patent publication US10123978B2, “Patch for treating dermatophytosis” (MEIJI SEIKA PHARMA CO., LTD., priority 2012, dated 2018).
Structures can show the parent of a compound that is named as a salt.

Assays:
[1] = tested on: Trichophyton rubrum (T. rubrum) ATCC10218; assay: Antifungal activity test against dermatophytes (MIC); format: cell-based; conditions: 80% growth inhibiting concentration, RPMI1640/MOPS, 28° C., 4 days, WST8; for MIC: Trichophyton rubrum, 96 h
Method: (§1) Measurement of the anti-trichophyton activity of the compound of the formula (I) comprised in the patch of the present invention was carried out by the following method. The compound to be evaluated was used by dissolving in dimethyl sulfoxide (DMSO). As a medium for the test, RPMI1640 medium containing 0.165M of 3-morpholinopropanesulfonic acid (MOPS) was used. As fungi to be tested, Trichophyton mentagrophytes (T. mentagrophytes) ATCC18748 or Trichophyton rubrum (T. rubrum) ATCC10218 was used. The testing fungal strain was apportioned to 100 μl with a concentration of 1×10^4 conidia/ml, mixed with a compound to be evaluated on a 96-well half area plate so that the DMSO concentration became 1%, and cultured at a cultivation temperature of 28° C. for 3 days (Trichophyton mentagrophytes) or 4 days (Trichophyton rubrum). Thereafter, 5 μl of Cell Counting Kit 8 (WST8) was added thereto, and absorbances at 450 nm and 595 nm were measured to use these as background values. Thereafter, these were cultivated at 28° C. for 5 hours (Trichophyton mentagrophytes) or overnight (Trichophyton rubrum) to cause a color, and absorbances at 450 nm and 595 nm were measured again. A growth inhibiting rate was calculated from the difference to the background values, and a 80% growth inhibiting concentration was made an MIC value (μg/ml).

[2] = tested on: Trichophyton mentagrophytes (T. mentagrophytes) ATCC18748; assay: as above; format: cell-based; conditions: 80% growth inhibiting concentration, RPMI1640/MOPS, 28° C., 3 days, WST8; for MIC: Trichophyton mentagrophytes, 72 h
Method: as §1

| Compound | MIC (T. rubrum) [1] | MIC (T. mentagrophytes) [2] | MIC [1] [µg/mL] | MIC [2] [µg/mL] |
| --- | --- | --- | --- | --- |
| CCc1ccc(-n2nc(C)cc2C)c(O)c1 [compound 52] | A (≤2 μg/ml) | A (≤1 μg/ml) |  |  |
| Cc1cc(C(F)(F)F)nn1-c1ccccc1O [compound 5] | D (>32-64 μg/ml) | C (16 to 32 μg/ml) |  |  |
| CCC(C)(C)c1ccc(CC(C)CN2C[C@@H](C)O[C@@H](C)C2)cc1 (some centres unmarked) [Amorolfine hydrochloride, reference compound] |  |  | ≤ 2 | ≤ 1 |
| CCOC(=O)c1c(C)nn(-c2ccccc2O)c1C [compound 22] | D (>32-64 μg/ml) | C (16 to 32 μg/ml) |  |  |
| Cc1cc(C)n(-c2cc(Cl)c(C)cc2O)n1 [compound 61] | C (16-32 μg/ml) | C (16 to 32 μg/ml) |  |  |
| Cc1cc(C)n(-c2c(N)cccc2O)n1 [compound 36] | D (>32-64 μg/ml) | E (Inhibited less than 50% with 32 μg/ml) |  |  |
| CCCCc1c(C)nn(-c2ccccc2O)c1C [compound 24] | C (16-32 μg/ml) | A (≤1 μg/ml) |  |  |
| Cc1cc(C)n(-c2c(O)cccc2O)n1 [compound 43] | D (>32-64 μg/ml) | E (Inhibited less than 50% with 32 μg/ml) |  |  |
| Cc1nn(-c2cc(O)ccc2O)c(C)c1Cl [compound 19] | C (16-32 μg/ml) | C (16 to 32 μg/ml) |  |  |
| Cc1cc(C)n(-c2c(C)cccc2O)n1 [compound 46] | D (>32-64 μg/ml) | E (Inhibited less than 50% with 32 μg/ml) |  |  |
| Cc1cc(C)n(-c2ccc(Cl)cc2O)n1 [compound 26] | A (≤2 μg/ml) | A (≤1 μg/ml) |  |  |
| Cc1cc(C)n(-c2ccccc2O)n1 [compound 1] | B (4-16 μg/ml) | B (2 to 8 μg/ml) |  |  |
| Cc1cc(C)n(-c2ccc(CO)cc2O)n1 [compound 47] | B (4-16 μg/ml) | B (2 to 8 μg/ml) |  |  |
| Cc1cc(C)n(-c2cccc(C)c2O)n1 [compound 51] | D (>32-64 μg/ml) | E (Inhibited less than 50% with 32 μg/ml) |  |  |
| Cc1nn(-c2ccc(Cl)cc2O)c(C)c1C [compound 30] | A (≤2 μg/ml) | A (≤1 μg/ml) |  |  |
| Cc1cc(C)n(-c2cc(Cl)ccc2O)n1 [compound 11] | D (>32-64 μg/ml) | C (16 to 32 μg/ml) |  |  |
| Cc1cc(C)n(-c2ccc(O)cc2O)n1 [compound 33] | A (≤2 μg/ml) | B (2 to 8 μg/ml) |  |  |
| CCc1c(C)nn(-c2ccccc2O)c1C [compound 17] | A (≤2 μg/ml) | A (≤1 μg/ml) |  |  |
| Cc1cc(C)n(-c2ccc(Br)cc2O)n1 [compound 54] | A (≤2 μg/ml) | A (≤1 μg/ml) |  |  |
| CNc1ccc(-n2nc(C)cc2C)c(O)c1 [compound 48] | B (4-16 μg/ml) | B (2 to 8 μg/ml) |  |  |

| Compound | MIC (T. rubrum) [1] | MIC (T. mentagrophytes) [2] | MIC [1] [µg/mL] | MIC [2] [µg/mL] |
| --- | --- | --- | --- | --- |
| Cc1cc(C)n(-c2ccc(F)cc2O)n1 [compound 25] | B (4-16 μg/ml) | B (2 to 8 μg/ml) |  |  |
| Cc1nn(-c2ccc(Br)cc2O)c(C)c1Cl [compound 55] | A (≤2 μg/ml) | A (≤1 μg/ml) |  |  |
| Cc1nn(-c2ccc([N+](=O)[O-])cc2O)c(C)c1C [compound 32] | B (4-16 μg/ml) | B (2 to 8 μg/ml) |  |  |
| Cc1cc(C)n(-c2cccc(O)c2O)n1 [compound 15] | C (16-32 μg/ml) | C (16 to 32 μg/ml) |  |  |
| Cc1ccn(-c2ccccc2O)n1 [compound 7] | E (>64 μg/ml) | C (16 to 32 μg/ml) |  |  |
| COc1ccc(-n2nc(C)cc2C)c(O)c1 [compound 45] | A (≤2 μg/ml) | A (≤1 μg/ml) |  |  |
| Oc1ccccc1-n1nc(C(F)(F)F)cc1C(F)(F)F [compound 6] | E (>64 μg/ml) | C (16 to 32 μg/ml) |  |  |
| Cc1nn(-c2ccc(F)cc2O)c(C)c1Cl [compound 21] | B (4-16 μg/ml) | A (≤1 μg/ml) |  |  |
| CN(C/C=C/C#CC(C)(C)C)Cc1cccc2ccccc12 [Terbinafine hydrochloride, reference compound] |  |  | ≤ 2 | ≤ 1 |
| Cc1nn(-c2ccc(Br)cc2O)c(C)c1C [compound 56] | A (≤2 μg/ml) | A (≤1 μg/ml) |  |  |
| Cc1cc(C)n(-c2cc(O)ccc2O)n1 [compound 16] | E (>64 μg/ml) | C (16 to 32 μg/ml) |  |  |
| Cc1nn(-c2ccc(C(N)=O)cc2O)c(C)c1C [compound 41] | D (>32-64 μg/ml) | D (Inhibited 50% or more and less than 80% with 32 μg/ml) |  |  |
| CC(C)(C)c1cc(N)n(-c2ccccc2O)n1 [compound 10] | E (>64 μg/ml) | D (Inhibited 50% or more and less than 80% with 32 μg/ml) |  |  |
| Cc1cc(C)n(-c2ccc(C(N)=O)cc2O)n1 [compound 39] | C (16-32 μg/ml) | C (16 to 32 μg/ml) |  |  |
| Cc1nn(-c2ccccc2O)c(C)c1Cl [compound 13] | B (4-16 μg/ml) | A (≤1 μg/ml) |  |  |
| Cc1nn(-c2ccc(C(=O)O)cc2O)c(C)c1C [compound 40] | D (>32-64 μg/ml) | E (Inhibited less than 50% with 32 μg/ml) |  |  |
| Cc1ccnn1-c1ccccc1O [compound 8] | E (>64 μg/ml) | C (16 to 32 μg/ml) |  |  |
| Cc1nn(-c2ccccc2O)c(C)c1C [compound 9] | A (≤2 μg/ml) | A (≤1 μg/ml) |  |  |
| CCc1cc(CC)n(-c2ccccc2O)n1 [compound 14] | B (4-16 μg/ml) | B (2 to 8 μg/ml) |  |  |
| Cc1ccc(-n2nc(C)cc2C)c(O)c1 [compound 44] | A (≤2 μg/ml) | A (≤1 μg/ml) |  |  |

| Compound | MIC (T. rubrum) [1] | MIC (T. mentagrophytes) [2] | MIC [1] [µg/mL] | MIC [2] [µg/mL] |
| --- | --- | --- | --- | --- |
| Cc1cc(C)n(-c2ccc(C(=O)O)cc2O)n1 [compound 37] | B (4-16 μg/ml) | B (2 to 8 μg/ml) |  |  |
| Cc1nn(-c2cc(F)ccc2O)c(C)c1C [compound 20] | D (>32-64 μg/ml) | C (16 to 32 μg/ml) |  |  |
| Cc1nn(-c2ccc(C(N)=O)cc2O)c(C)c1Cl [compound 42] | D (>32-64 μg/ml) | C (16 to 32 μg/ml) |  |  |
| Cc1nn(-c2ccccc2O)c(C)c1F [compound 53] | B (4-16 μg/ml) | B (2 to 8 μg/ml) |  |  |
| Cc1nn(-c2ccc(F)cc2O)c(C)c1C [compound 18] | B (4-16 μg/ml) | B (2 to 8 μg/ml) |  |  |
| Cc1nn(-c2ccc(N)cc2O)c(C)c1C [compound 34] | B (4-16 μg/ml) | B (2 to 8 μg/ml) |  |  |
| CC(=O)Oc1ccc(-n2nc(C)cc2C)c(O)c1 [compound 57] | B (4-16 μg/ml) | B (2 to 8 μg/ml) |  |  |
| Cc1cc(C)n(-c2ccc(N)cc2O)n1 [compound 31] | B (4-16 μg/ml) | B (2 to 8 μg/ml) |  |  |
| Cc1ccc(O)c(-n2nc(C)cc2C)c1 [compound 49] | D (>32-64 μg/ml) | E (Inhibited less than 50% with 32 μg/ml) |  |  |
| CC(=O)Oc1ccc(-n2nc(C)c(C)c2C)c(O)c1 [compound 59] | B (4-16 μg/ml) | B (2 to 8 μg/ml) |  |  |
| Cc1cc(C)n(-c2cccc(Cl)c2O)n1 [compound 12] | E (>64 μg/ml) | C (16 to 32 μg/ml) |  |  |
| Cc1cc(C)n(-c2ccc([N+](=O)[O-])cc2O)n1 [compound 28] | C (16-32 μg/ml) | B (2 to 8 μg/ml) |  |  |
| Cc1cc(C)n(-c2ccc(C(=O)N(C)C)cc2O)n1 [compound 38] | B (4-16 μg/ml) | C (16 to 32 μg/ml) |  |  |
| Cc1cc(C)n(-c2ccc(C(F)(F)F)cc2O)n1 [compound 50] | B (4-16 μg/ml) | B (2 to 8 μg/ml) |  |  |
| CC(=O)Oc1ccc(-n2nc(C)c(Cl)c2C)c(O)c1 [compound 58] | A (≤2 μg/ml) | B (2 to 8 μg/ml) |  |  |
| COC(=O)CCc1c(C)nn(-c2ccccc2O)c1C [compound 23] | D (>32-64 μg/ml) | C (16 to 32 μg/ml) |  |  |
| COC(=O)c1ccc(-n2nc(C)cc2C)c(O)c1 [compound 35] | C (16-32 μg/ml) | C (16 to 32 μg/ml) |  |  |
| Cc1nn(-c2ccc(O)cc2O)c(C)c1Cl [compound 63] | A (≤2 μg/ml) | A (≤1 μg/ml) |  |  |
